Measured values reported in patent publication US11965159B2, “Compositions and methods for regulating proteins and nucleic acids activities” (THE BROAD INSTITUTE, INC., priority 2019, dated 2024).

Columns and labels:
[1] = target: T1, SpCas9:gRNA ribonucleoprotein complex (Streptococcus pyogenes serotype M1, UniProt Q99ZW2); experiment: 19F NMR binding assay; settings: [Ligand] 50 μM
T1 construct: His6 (N, cleaved yes); made in house; host or cells: E. coli BL21 Star (DE3)
Protocol: (§1) NMR binding assay. All samples were prepared with 50 μM BRD7087 in 20 mM Tris buffer (pH=7.4) with varying concentrations of SpCas9:gRNA in a 3 mm NMR tube. Experiments were performed on a 600 MHz (19F: 564.71 MHz) BRUKER Avance™ III NMR spectrometer equipped with a 5 mm QCI-F CryoProbe™ and a SampleJet for automated sample handling. To acquire spectra, a standard one-pulse 19F experiment with WALTZ-16 for proton decoupling during acquisition, a 5 second recycle delay, and 256 scans was used. All spectra were recorded at 280 K. NMR data were apodized with a 1 Hz exponential function prior to Fourier transformation. All spectra were baseline corrected; peak widths and intensities were extracted using the automated line-fitting feature provided with the MNova software package. Determination of the value of Kd was accomplished using least squares fitting to the expression given in Equation 8 in the paper by Shortridge et al.2.
Kd values obtained by NMR rely on the assumption that ligand binding is in fast-exchange, which typically holds true for ligands with Kd in the 0.5 μM to 20 mM range.
as §1, with “(^19F:” for “(19F:”, “^19F” for “19F”, “al.^2.” for “al.2.”

[2] = target: SpCas9 (Streptococcus pyogenes serotype M1, UniProt Q99ZW2); experiment: mKate2 expression (knockdown/disruption) assay; format: cell-based; settings: read-out: inhibition activity in mKate2 disruption assay
Protocol: Where σ1 and σ2 are the standard deviations of DN66 transfected wells and (DN66+DN78) transfected wells respectively. μ1 and μ2 are the mean % GFP− cell population for DN66 transfected wells and (DN66+DN78) transfected wells respectively. mKate2 expression assay. Approximately 8,000 cells/well were plated in a 96-well format 24 h before transiently transfected with 100 ng of either CgRNA (Addgene Plasmid #64955) or T1 gRNA (Addgene Plasmid #62717) plasmids using Lipofectamine™ 2000 (Life Technologies™). Transfected cells were allowed to grow in the indicated amount of compound or DMSO for 24 h. Cells were then fixed using 4% paraformaldehyde and imaged with the HCS NuclearMask™ Blue Stain (Life Technologies™) as the nuclear counter-staining agent. […] Images were analyzed in the MetaXpress® software to determine the % mKate2 positive cells and the % NHEJ was calculated following a reported protocol and plotted using GraphPad Prism 6. The Z′-value was calculated following the formula:
mKate2 expression assay. […] Images were analyzed in the MetaXpress® software to determine the % mKate2 positive cells and the % NHEJ was calculated following a reported protocol and plotted using GraphPad Prism 6. The Z′-value was calculated following the formula: […]

T1 sequence (Q99ZW2 whole entry, one chain of several): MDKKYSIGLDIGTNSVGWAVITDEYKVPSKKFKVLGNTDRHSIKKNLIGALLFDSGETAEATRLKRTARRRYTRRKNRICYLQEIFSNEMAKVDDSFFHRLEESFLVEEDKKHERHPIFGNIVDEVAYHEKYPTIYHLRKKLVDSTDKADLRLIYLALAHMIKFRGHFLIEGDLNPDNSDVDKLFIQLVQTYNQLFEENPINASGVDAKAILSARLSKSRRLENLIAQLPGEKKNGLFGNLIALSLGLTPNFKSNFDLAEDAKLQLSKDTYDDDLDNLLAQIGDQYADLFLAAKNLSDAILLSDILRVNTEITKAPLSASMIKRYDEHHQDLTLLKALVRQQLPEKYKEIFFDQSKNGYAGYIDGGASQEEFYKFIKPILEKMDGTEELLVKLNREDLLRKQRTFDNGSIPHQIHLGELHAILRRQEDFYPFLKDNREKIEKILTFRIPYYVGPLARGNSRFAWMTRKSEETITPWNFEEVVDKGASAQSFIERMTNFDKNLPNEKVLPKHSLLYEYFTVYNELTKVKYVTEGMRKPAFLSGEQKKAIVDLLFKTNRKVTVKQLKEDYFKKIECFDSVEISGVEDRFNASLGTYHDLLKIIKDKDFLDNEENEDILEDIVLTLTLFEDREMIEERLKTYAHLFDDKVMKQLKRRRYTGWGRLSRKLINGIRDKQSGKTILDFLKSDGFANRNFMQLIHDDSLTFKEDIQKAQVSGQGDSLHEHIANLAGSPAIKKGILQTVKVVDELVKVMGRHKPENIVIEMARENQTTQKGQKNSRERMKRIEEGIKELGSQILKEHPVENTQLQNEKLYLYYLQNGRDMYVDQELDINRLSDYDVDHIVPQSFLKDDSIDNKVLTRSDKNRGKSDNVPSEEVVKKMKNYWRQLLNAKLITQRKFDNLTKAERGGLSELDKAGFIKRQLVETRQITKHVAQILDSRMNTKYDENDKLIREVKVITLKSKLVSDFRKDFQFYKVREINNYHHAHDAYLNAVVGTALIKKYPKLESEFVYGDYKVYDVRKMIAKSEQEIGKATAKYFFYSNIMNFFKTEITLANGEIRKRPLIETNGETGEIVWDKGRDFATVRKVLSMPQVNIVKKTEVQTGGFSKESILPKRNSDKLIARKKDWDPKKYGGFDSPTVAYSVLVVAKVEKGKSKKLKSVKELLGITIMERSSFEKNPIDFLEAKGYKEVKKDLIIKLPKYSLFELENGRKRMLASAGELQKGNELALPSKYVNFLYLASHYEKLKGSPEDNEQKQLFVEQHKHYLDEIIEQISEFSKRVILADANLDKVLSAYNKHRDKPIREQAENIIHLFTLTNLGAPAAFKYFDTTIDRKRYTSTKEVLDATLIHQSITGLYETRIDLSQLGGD
SpCas9, sequence (Q99ZW2 whole entry): as the sequence (Q99ZW2 whole entry, one chain of several) above

**Q.** OC[C@H]1Nc2ccc(-c3cccc(F)c3)cc2[C@H]2[C@@H]1CCN2Cc1ccncc1 [BRD7087, ((3aR,4S,9bR)-8-(3-Fluorophenyl)-1-(pyridin-4-ylmethyl)-2,3,3a,4,5,9b-hexahydro-1H-pyrrolo[3,2-c]quinolin-4-yl)methanol] was tested. Which LW ([1]; [Protein:RNA] 0 μM) did it give?
**A.** 4.1 Hz

**Q.** What about the “Peak Area” value ([1]; [Protein:RNA] 0 μM) of the same compound?
**A.** 3151271.718

**Q.** And the “Peak Intensity” value ([1]; [Protein:RNA] 0 μM)?
**A.** 572470.95

**Q.** And the “Fractional Occupancy” value ([1]; [Protein:RNA] 0 μM, 1-Ibound/I0)?
**A.** 0

**Q.** And the LW ([1]; [Protein:RNA] 0.75 μM)?
**A.** 4.3 Hz

**Q.** What about the “Peak Area” value ([1]; [Protein:RNA] 0.75 μM) of the same compound?
**A.** 2968891.536

**Q.** And the “Peak Intensity” value ([1]; [Protein:RNA] 0.75 μM)?
**A.** 497630.81

**Q.** What about the LW ([1]; [Protein:RNA] 1.0 μM) of the same compound?
**A.** 4.6 Hz

**Q.** And the “Peak Area” value ([1]; [Protein:RNA] 1.0 μM)?
**A.** 2999269.636

**Q.** And the “Peak Intensity” value ([1]; [Protein:RNA] 1.0 μM)?
**A.** 468481.06

**Q.** What about the LW ([1]; [Protein:RNA] 1.25 μM) of the same compound?
**A.** 5.3 Hz

**Q.** What about the “Peak Area” value ([1]; [Protein:RNA] 1.25 μM) of the same compound?
**A.** 2964107.303

**Q.** And the “Peak Intensity” value ([1]; [Protein:RNA] 1.25 μM)?
**A.** 398322.72

**Q.** And the LW ([1]; [Protein:RNA] 1.5 μM)?
**A.** 5.9 Hz

**Q.** What about the “Peak Area” value ([1]; [Protein:RNA] 1.5 μM) of the same compound?
**A.** 3176044.761

**Q.** And the “Peak Intensity” value ([1]; [Protein:RNA] 1.5 μM)?
**A.** 375769.97

**Q.** And the LW ([1]; [Protein:RNA] 1.75 μM)?
**A.** 6.3 Hz

**Q.** And the “Peak Area” value ([1]; [Protein:RNA] 1.75 μM)?
**A.** 3020022.312

**Q.** What about the “Peak Intensity” value ([1]; [Protein:RNA] 1.75 μM) of the same compound?
**A.** 342640.49

**Q.** What about the inhibition at 5 µM [2] of the same compound?
**A.** 50%
